Assay [1] relates to Miapaca-2 pancreatic cancer cells. Nature of the assay: Cell viability (MTT), Miapaca-2. Type of assay: cell-based. How it is done:
(§1) Cell viability (MTT) and CFSE Proliferation assay: Cells were plated in 96-well plates and let adhere overnight. After cell treatment, cell viability was measured by 3-(4,5-dimethylthiazol-2-yl)-2,5-diphenyl tetrazolium bromide (MTT) assay (CellTiter 96® Aqueous, Promega, Madison, Wis.).
(§2) Cell viability and detachment assays: After cells were treated with siRNA transfection, cell viability was measured by 3-(4,5-dimethylthiazol2-yl)-2,5-diphenyl tetrazolium bromide (MTT) assay (CellTiter 96® AQueous, Promega, Madison, Wis.). Briefly, 20 μl of the tetrazolium compound was added to each well. The cells were then incubated at 37° C. for 1 h. The plate was read at 490 nm with a plate reader to determine the viability. In detachment assays, detached and attached cells were harvested separately and counted in a hemocytometer. The percentage of detachment was calculated by dividing the number of detached cells by the total number of cells. Apoptosis assays: After treatment, attached and detached cells were collected, counted and prepared for terminal uridine deoxynucleotidyl transferase (TUNEL) assay by utilizing an APO-BRDU kit (BD Pharmingen, San Diego, Calif.) according to the manufacturer's instructions. Stained cells were analyzed with a fluorescence-activated cell sorting-Calibur flow cytometer (BD Biosciences). […] Apoptotic cells were also analyzed by Hoechst staining. […]

Assay [2] deals with KYSE180 esophageal cancer cells. Nature of the assay: Cell viability (MTT), KYSE180. The format is cell-based. The following applies: Homo sapiens, KYSE-180; KYSE180, 72 hours; read-out: IC50 of INT2-31, cell viability. How it is done:
as §1, §2

In assay [3] the test system is AsPC1 pancreatic cancer cells. Nature of the assay: Cell viability (MTT), AsPC1. The format is cell-based. The following applies: Homo sapiens; AsPC1, 72 hours; read-out: IC50 of INT2-31, cell viability. As to the method: as §1, §2
The target in a further assay is T1, GST-FAK-NT2 and IGF-1Rβ (Homo sapiens, UniProt Q05397).
T1 construct: host or cells: E. coli BL21 (DE3) for GST-FAK-NT2
Put plainly: Pull-down assay with purified GST-FAK-NT2 and IGF-1Rβ. The note with it: average IC50, pulldown; read-out: IC50, decrease in binding between purified GST-FAK-NT2 and IGF-1Rβ. An excerpt:
Computational Docking The crystal structures of the N-terminal domain of FAK (PDB code 2AL6) (22) and the kinase domain of IGF-1R(PDB 1P40A) (23) were utilized for in silico molecular modeling of their interaction as previously described. The three-dimensional coordinates of compound NSC344553 (INT2-31), obtained from the database of the National Cancer Institute, Developmental Therapeutics Program (NCI/DTP), were docked onto the predicted interface of the amino-terminus of FAK (amino acids 127-243) with the intracytoplasmic portion of IGF-1R (21). […] 100 orientations were created for NSC344553 in the target site and were scored using the computer program grid-based scoring function. […] The intermolecular energies for all configurations of NSC 344553 in binding to FAK-NT2 were calculated as the sum of electrostatic and van der Waals energies. These energy terms were evaluated as correlation functions, which were computed efficiently with Fast Fourier Transforms. […] Bound proteins were boiled in 6× Laemmli buffer and analyzed by SDS-PAGE and Western blotting. […] The intensity of the bands in the western blots was measured with scion image analysis software program. […]

In assay [4] the test system is BxPC3 pancreatic cancer cells. Put plainly: Cell viability (MTT), BxPC3. Type of assay: cell-based. The following applies: Homo sapiens, BXPC-3; BxPC3, 72 hours; read-out: IC50 of INT2-31, cell viability. As to the method: as §1, §2

SMILES strings stand for the structures.

T1 sequence (Q05397 127-243): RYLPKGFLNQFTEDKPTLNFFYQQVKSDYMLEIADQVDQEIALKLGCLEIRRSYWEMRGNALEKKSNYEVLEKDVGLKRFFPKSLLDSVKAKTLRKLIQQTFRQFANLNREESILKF

One may read the IC50 as the point on the concentration scale where inhibition reaches its midpoint. On to `CSc1ncnc2c1ccn2C1O[C@H](COP(=O)(O)O)[C@@H](O)[C@H]1O` (stereo partly drawn) [INT2-31, 4-(Methylthio)-7-(5-O-phosphono-D-ribofuranosyl)-{7H-Pyrrolo[2,3-d]pyrimidine}], for which the IC50 is 4.73 µM in assay [1] (Homo sapiens, MIA PaCa-2, Miapaca-2, 72 hours, read-out: IC50 of INT2-31, cell viability); 19.8 µM in assay [2]; 16.9 µM in assay [3]; 3.96 µM at GST-FAK-NT2 and IGF-1Rβ; 45.6 µM in assay [4]. For the same molecule, the “cell viability (in words)” value in assay [1] (MiaPaCa-2, 72 hours) is “inhibits the cell viability”.

The values above are taken from patent publication US20120107323A1, “KINASE PROTEIN BINDING INHIBITORS” (University of Florida, priority 2009, published 2012).
